From article PMC5514153, “Targeting PTPRZ inhibits stem cell-like properties and tumorigenicity in glioblastoma cells” (Scientific Reports, 2017)

System: paxillin at Tyr-118 in C6 cells
Test: Paxillin Tyr-118 phosphorylation in C6 cells (Western blot)
Format: cell-based, rat
Settings: 25 µM
Description: Figure 7 Cellular effects of NAZ2329 on the malignant phenotypes of C6 cells. (A) Phosphorylation of paxillin at Tyr-118. C6 cells were incubated with NAZ2329 for the indicated periods. Immunoprecipitated paxillin was analyzed by Western blotting using anti-pY118-paxillin and anti-paxillin. Blots are representative of five independent cultures. […] (B) Cell proliferation assay. C6 cells were incubated for 48 h with NAZ2329 in normal medium containing 2% FBS. […] (C) Boyden chamber assay. Cells were allowed to migrate for 3 h. DAPI-stained nuclei are shown before (total) and after (migrated) the removal of cells remaining in the top chamber. Scale bars, 100 µm. […] (D,E) Sphere formation (D) and SOX2 expression (E). C6 cells were cultured in CSC medium for 7 days with indicated concentrations of NAZ2329. Images are representative of five independent cultures. Scale bars, 100 µm. […] (F) Self-renewal of C6 spheres. […]
After precleaning the extracts with Protein G Sepharose (#17-0618-02, GE Healthcare), samples were subjected to immunoprecipitation with Protein G Sepharose coated with a mouse anti-paxillin antibody. […] The binding of these antibodies was detected with Luminata Forte Western HRP substrate (Millipore) and imaged with a chemiluminescent image analyzer system (EZ-Caputure MG, Atto Corp).

SMILES: CCOc1ccc(C(F)(F)F)cc1CSc1ccsc1C(=O)NS(=O)(=O)c1ccccc1 [NAZ2329]
- phosphorylation level of paxillin at Tyr-118: significantly enhanced the phosphorylation level
